In US11390606B2, “Pyridazinone compounds and uses thereof” (Edgewise Therapeutics, Inc., priority 2018, dated 2022):

Target: T1, skeletal myofibrils (Rabbit Psoas), myosin ATPase activity
T1 construct: Rabbit Psoas Prep 11 (0.25 mg/mL)
Test: Skeletal Myofibril ATPase Assay
Type: biochemical
Conditions: skeletal myofibrils (Rabbit Psoas 0.25 mg/mL), PK/LDH-coupled NADH absorbance at 340 nm
Procedure: Overview: Myosin ATPase activity is assessed by using a coupled reaction system, in which ADP generated by the myosin ATPase function is coupled to the disappearance of NADH through the pyruvate kinase/lactate dehydrogenase (PK-LDH) system. Myosin ATPase activity produces ADP, which is used as a substrate for PK to produce pyruvate and regenerate ATP. The pyruvate is then used as a substrate by LDH to oxidize NADH to NAD+. The rate of the reaction is monitored through the time-dependent disappearance of NADH using absorbance at 340 nm. Inhibition of ATPase activity by the assayed compounds is indicated by a reduced rate of NADH loss, relative to vehicle-treated controls, over the experimental time window. To assess the selectivity of the assayed compounds for skeletal myofibrils, the compounds are counter-screened in cardiac myofibrils.
Materials: The following stock solutions and reagents were used in the Skeletal Myofibril ATPase Assay:
Stock Solutions of pCa buffer. Combine PIPES, CaCl2, and EGTA solutions with 70 mL of water. Adjust pH to 7.0 and bring final volume to 100 mL.
Buffer A & Buffer B. Buffers were stored on ice until use.
Skeletal Myofibril ATPase Assay Procedure: BSA, ATP, NADH, PEP, and DTT solutions were thawed at room temperature, then transferred to ice. Pellet-frozen myofibrils were transferred with approximately twice the required volume into a sufficiently large tube and capped. Myofibrils were thawed by rolling in a water bath for approximately 15 min at room temperature and cooled on ice. Buffers A and B were prepared by adjusting volumes as necessary for required number of wells and stored on ice. 0.5 μL of the compounds to be assayed were added into wells. 25 μL of Buffer A was dispensed into the wells, followed by 25 μL of Buffer B. The wells were measured for absorbance at 340 nm, using a kinetic protocol in which the wells are read every 1.5-2 min for 45 min. The slope of the data was approximated by subtracting the minimum absorbance value from the maximum value for each well. This was accomplished either in the SoftMax Pro software or in a spreadsheet program such as Excel. Using GraphPad Prism 8.0, the data was normalized by assigning a value of 100% to the 1% DMSO vehicle wells. Typically, a normalized 0% value was simply assigned to a (Max−Min) value of 0. The normalized data was fit to a Four Parameter Logistic sigmoidal equation, constraining the bottom to be 0 or greater. Compounds of Table 1 to 4 were tested and results of the assay appear in Table 5 herein. A=IC50 is less than or equal to 10 μM; B=IC50 is greater than 10 μM and less than 100 μM; C=IC50 is greater than 100 μM.

Structure (SMILES) | IC50
NC(=O)c1ccc(-c2ccc(=O)n(Cc3ccc(Cl)cc3)n2)cc1 [Compound 114, 4-(1-(4-chlorobenzyl)-6-oxo-1,6-dihydropyridazin-3-yl)benzamide] | 10 to 100 µM
O=c1ccc(-c2ccc(F)cc2)nn1Cc1ccc(F)cc1 [Compound 244, 2-(4-fluorobenzyl)-6-(4-fluorophenyl)pyridazin-3(2H)-one] | 10 to 100 µM
C[C@@H](c1ccccc1)n1nc(-c2ccc(Cl)cc2)ccc1=O [Compound 315, (S)-6-(4-chlorophenyl)-2-(1-phenylethyl)pyridazin-3(2H)-one] | > 100 µM
N#Cc1ccc(Cn2nc(-c3ccc(Br)cc3)ccc2=O)cc1 [Compound 238, 4-((3-(4-bromophenyl)-6-oxopyridazin-1(6H)-yl)methyl)benzonitrile] | 10 to 100 µM
CC1(C)C(=O)Nc2ccc(-c3ccc(=O)n(Cc4ccc(Cl)cc4)n3)cc21 [Compound 121, 5-(1-(4-chlorobenzyl)-6-oxo-1,6-dihydropyridazin-3-yl)-3,3-dimethylindolin-2-one] | > 100 µM
COc1ccc(Cn2nc(-c3ccc(SC)cc3)ccc2=O)cc1 [Compound 201, 2-(4-methoxybenzyl)-6-(4-(methylthio)phenyl)pyridazin-3(2H)-one] | > 100 µM
O=c1ccc(-c2cnc(NCC(F)F)nc2)nn1Cc1ccc(Cl)cc1 [Compound 32, 2-(4-chlorobenzyl)-6-(2-((2,2-difluoroethyl)amino)pyrimidin-5-yl)pyridazin-3(2H)-one] | < 10 µM
O=c1ccc(-c2cnc(OCC(F)(F)F)nc2)nn1Cc1c(F)cccc1F [Compound 41, 2-(2,6-difluorobenzyl)-6-(2-(2,2,2-trifluoroethoxy)pyrimidin-5-yl)pyridazin-3(2H)-one] | < 10 µM
C[C@@H]1Cc2cc(-c3ccc(=O)n(Cc4ccc(Cl)cc4)n3)ccc2O1 [Compound 111, (R)-2-(4-chlorobenzyl)-6-(2-methyl-2,3-dihydrobenzofuran-5-yl)pyridazin-3(2H)-one] | < 10 µM
O=c1ccc(-c2cnc(OCCOC(F)F)nc2)nn1Cc1ccc(Cl)cc1 [Compound 1, 2-(4-chlorobenzyl)-6-(2-(2-(difluoromethoxy)ethoxy)pyrimidin-5-yl)pyridazin-3(2H)-one] | < 10 µM
O=c1ccc(-c2cnc(OCC(F)(F)F)nc2)nn1C1(c2ccccc2)CC1 [Compound 54, 2-(1-phenylcyclopropyl)-6-(2-(2,2,2-trifluoroethoxy)pyrimidin-5-yl)pyridazin-3(2H)-one] | < 10 µM
CC(=O)Nc1ncc(-c2ccc(=O)n(Cc3ccc(Cl)cc3)n2)cn1 [Compound 26, N-(5-(1-(4-chlorobenzyl)-6-oxo-1,6-dihydropyridazin-3-yl)pyrimidin-2-yl)acetamide] | < 10 µM
COc1ccc(-c2ccc(=O)n(Cc3ccc(Cl)cc3)n2)cc1 [Compound 212, 2-(4-chlorobenzyl)-6-(4-methoxyphenyl)pyridazin-3(2H)-one] | < 10 µM
O=c1ccc(-c2ccc3c(c2)CCO3)nn1Cc1ccc(Cl)cc1 [Compound 112, 2-(4-chlorobenzyl)-6-(2,3-dihydrobenzofuran-5-yl)pyridazin-3(2H)-one] | < 10 µM
O=c1ccc(-c2ccc(OC(F)F)cc2)nn1Cc1ccc(Cl)cc1 [Compound 103, 2-(4-chlorobenzyl)-6-(4-(difluoromethoxy)phenyl)pyridazin-3(2H)-one] | < 10 µM
O=c1ccc(-c2cnc(OCC3(F)COC3)nc2)nn1Cc1ccc(Cl)cc1 [Compound 22, 2-(4-chlorobenzyl)-6-(2-((3-fluorooxetan-3-yl)methoxy)pyrimidin-5-yl)pyridazin-3(2H)-one] | < 10 µM
Cc1ccc(Cn2nc(-c3ccc(Cl)cc3)ccc2=O)cc1 [Compound 311, 6-(4-chlorophenyl)-2-(4-methylbenzyl)pyridazin-3(2H)-one] | < 10 µM
Cc1ccccc1Cn1nc(-c2ccc(Cl)cc2)ccc1=O [Compound 308, 6-(4-chlorophenyl)-2-(2-methylbenzyl)pyridazin-3(2H)-one] | < 10 µM
Cc1cccc(Cn2nc(-c3ccc(Cl)cc3)ccc2=O)c1 [Compound 314, 6-(4-chlorophenyl)-2-(3-methylbenzyl)pyridazin-3(2H)-one] | < 10 µM
Cc1ccc(-c2ccc(=O)n(Cc3ccc(F)cc3)n2)cc1 [Compound 236, 2-(4-fluorobenzyl)-6-(p-tolyl)pyridazin-3(2H)-one] | < 10 µM
CN(C)c1ccc(-c2ccc(=O)n(Cc3ccc(Cl)cc3)n2)cn1 [Compound 27, 2-(4-chlorobenzyl)-6-(6-(dimethylamino)pyridin-3-yl)pyridazin-3(2H)-one] | < 10 µM

Now from value to compound:

IC50 | Structure (SMILES)
< 10 µM | O=c1ccc(-c2cnc(OCC(F)(F)F)nc2)nn1Cc1cccc(F)c1 [Compound 35, 2-(3-fluorobenzyl)-6-(2-(2,2,2-trifluoroethoxy)pyrimidin-5-yl)pyridazin-3(2H)-one]
< 10 µM | CCc1ccc(-c2ccc(=O)n(Cc3ccc(Cl)cc3)n2)cc1 [Compound 313, 2-(4-chlorobenzyl)-6-(4-ethylphenyl)pyridazin-3(2H)-one]
< 10 µM | O=c1ccc(-c2cnc(N3CC(C(F)(F)F)C3)nc2)nn1Cc1ccc(Cl)cc1 [Compound 4, 2-(4-chlorobenzyl)-6-(2-(3-(trifluoromethyl)azetidin-1-yl)pyrimidin-5-yl)pyridazin-3(2H)-one]
< 10 µM | O=c1ccc(-c2ccc(OCC(F)(F)F)nc2)nn1Cc1ccc(Cl)cc1 [Compound 11, 2-(4-chlorobenzyl)-6-(6-(2,2,2-trifluoroethoxy)pyridin-3-yl)pyridazin-3(2H)-one]
< 10 µM | CCCOc1ccc(-c2ccc(=O)n(Cc3ccc(Cl)cc3)n2)cc1 [Compound 218, 2-(4-chlorobenzyl)-6-(4-propoxyphenyl)pyridazin-3(2H)-one]
< 10 µM | O=c1ccc(-c2cnc(OCC(F)(F)F)nc2)nn1Cc1ccccc1O [Compound 49, 2-(2-hydroxybenzyl)-6-(2-(2,2,2-trifluoroethoxy)pyrimidin-5-yl)pyridazin-3(2H)-one]
< 10 µM | CCOc1ccc(-c2ccc(=O)n(Cc3ccc(Cl)cc3)n2)cc1 [Compound 213, 2-(4-chlorobenzyl)-6-(4-ethoxyphenyl)pyridazin-3(2H)-one]
< 10 µM | O=c1ccc(-c2cnc(N3CC4(C3)CC(F)(F)C4)nc2)nn1Cc1ccc(Cl)cc1 [Compound 14, 2-(4-chlorobenzyl)-6-(2-(6,6-difluoro-2-azaspiro[3.3]heptan-2-yl)pyrimidin-5-yl)pyridazin-3(2H)-one]
< 10 µM | O=c1ccc(-c2ccc(Cl)cc2)nn1Cc1ccc(F)cc1 [Compound 306, 6-(4-chlorophenyl)-2-(4-fluorobenzyl)pyridazin-3(2H)-one]
< 10 µM | O=c1ccc(-c2cnc(OCC(F)(F)F)nc2)nn1Cc1ccc(F)c(F)c1 [Compound 42, 2-(3,4-difluorobenzyl)-6-(2-(2,2,2 trifluoroethoxy)pyrimidin-5-yl)pyridazin-3(2H)-one]
< 10 µM | O=c1ccc(-c2cnc(OCC3COC3)nc2)nn1Cc1ccc(Cl)cc1 [Compound 33, 2-(4-chlorobenzyl)-6-(2-(oxetan-3-ylmethoxy)pyrimidin-5-yl)pyridazin-3(2H)-one]
< 10 µM | O=c1ccc(-c2cnc(N3CCCC3)nc2)nn1Cc1ccc(F)cc1F [Compound 23, 2-(2,4-difluorobenzyl)-6-(2-(pyrrolidin-1-yl)pyrimidin-5-yl)pyridazin-3(2H)-one]
